{"source": "patent US9873674B2", "about": "“C-Rel inhibitors and uses thereof” (CORNELL UNIVERSITY, priority 2012, dated 2018)", "key": {"[1]": {"tested_on": "IFN-γ", "assay": "IFN-γ expression, intracellular cytokine staining and flow cytometry in CD4+ T cells", "format": "cell-based, mouse or human", "conditions": "anti-CD3+anti-CD28 for 6 hours, % cytokine-expressing CD4+ T cells; data not shown", "protocol": "(§1) Since autoimmune diseases are associated with elevated levels of inflammatory cytokines, it is important to identify Rel inhibitors that can inhibit the expression of inflammatory cytokines. As c-Rel regulates the expression of several cytokines including IL-2, IFN-γ, and TNF, assays for these cytokines can be used to assess the anti-inflammatory effects of Rel inhibitor analogs. To perform such experiments, mouse splenocytes or human PBMCs were stimulated with anti-CD3+anti-CD28 for 6 hours to induce cytokine expression. Compounds were added at the beginning of the culture. Cytokines (IL-2, IFN-γ, and TNF) were measured by intracellular cytokine staining and flow cytometry and the % of cytokine-expressing cells within CD4+ T cell population was enumerated. Compounds at varying doses were tested."}, "[2]": {"tested_on": "IL-2", "assay": "IL-2 expression by ELISA in stimulated mouse splenocytes", "format": "cell-based", "conditions": "Splenocyte, mouse splenocytes stimulated with anti-CD3+anti-CD28, 0 to 20 μM, read-out: IC50 of IL2 inhibition", "protocol": "In yet another example, IL-2 expression was quantified by ELISA analysis. In these experiments, mouse splenocytes were stimulated with anti-CD3+anti-CD28, in the presence of varying doses of Rel inhibitors (from 0 to 20 μM)."}, "[3]": {"tested_on": "TNF", "assay": "TNF expression, intracellular cytokine staining and flow cytometry in CD4+ T cells", "format": "cell-based, mouse or human", "conditions": "anti-CD3+anti-CD28 for 6 hours, % cytokine-expressing CD4+ T cells; data not shown", "protocol": "as §1"}, "[4]": {"tested_on": "DLBCL tumor cells", "assay": "DLBCL xenograft tumor model in NOD/SCID mice", "format": "in vivo, mouse", "protocol": "Xenograft tumor models have been widely used to study human cancer. […] The experiment used non-obese diabetic (NOD)/SCID mice for testing Rel inhibitor analogs.\nMale NOD/SCID mice were injected with 3-5×10^6 of DLBCL tumor cells subcutaneously in each flank area. When tumors were palpable (˜12 days after injection), the mice were randomized to receive either vehicle or test compounds corresponding to Rel inhibitors of the invention. In some experiments, DHMEQ was used as a benchmark compound. Compounds were administrated via i.p. at 12 to 24 mg/kg, three days per week for 2-3 weeks. Tumor volume was measured twice a week."}, "[5]": {"tested_on": "IL-2", "assay": "IL-2 expression, intracellular cytokine staining and flow cytometry in CD4+ T cells", "format": "cell-based, mouse or human", "conditions": "anti-CD3+anti-CD28 for 6 hours, % cytokine-expressing CD4+ T cells; data not shown", "protocol": "as §1"}, "[6]": {"tested_on": "L363 cells", "assay": "Tumor cell cytotoxicity assay, multiple myeloma cell line L363", "format": "cell-based", "conditions": "L363 cells (active classical pathway), 48 hours", "protocol": "(§2) For example, the “classical” Rel pathway is crucial for the survival of L363 cell line, whereas the “alternative” pathway is important for the survival of RPMI8226 cells.\n(§3) The MM and DLBCL cell lines were used to test for tumor cell cytotoxicity by the Rel inhibitor analogs. As an example, three MM cell lines were treated with a Rel inhibitor for 48 hours and cell numbers were enumerated as percentage of control group."}, "[7]": {"tested_on": "STZ-induced diabetes", "assay": "Streptozotocin (STZ)-induced diabetes model", "format": "in vivo", "conditions": "40 μg/mouse/day IP, day 0 to day 5, C57BL/6 mice; data not shown", "protocol": "In yet another example, a Rel inhibitor compound was tested in Streptozotocin (STZ)-induced diabetes model. C57BL/6 (cRel+/+) mice were treated with low dose STZ for 5 days to induce diabetes, as indicated by glucose level above 300 mg/dl. c-Rel(−/−) mice were used as a control group. The Rel inhibitor (BA-001, 40 μg/mouse/day) or DMSO were injected IP to a group of five C57BL/6 mice for six consecutive days from day 0 to day 5. Glucose levels were determined at day 5, 7, 9, 12, 15, 19 and 27."}, "[8]": {"tested_on": "RPMI8226 cells", "assay": "Tumor cell cytotoxicity assay, multiple myeloma cell line RPMI8226", "format": "cell-based", "conditions": "RPMI8226 cells (active alternative pathway), 48 hours", "protocol": "as §2, §3"}, "[9]": {"tested_on": "MM1-144 cells", "assay": "Tumor cell cytotoxicity assay, multiple myeloma cell line MM1-144", "format": "cell-based", "conditions": "MM1-144 cells (use both pathways), 48 hours", "protocol": "as §2, §3"}, "[10]": {"tested_on": "CD69", "assay": "Expression of non-c-Rel target genes", "format": "cell-based, mouse or human"}, "[11]": {"tested_on": "DLBCL tumor cell lines", "assay": "DLBCL cytotoxicity assay", "format": "cell-based", "conditions": "read-out: IC50 on DLBCL cytotoxicity assay", "protocol": "as §3\nThe IC50 was defined as the concentration that causes 50% cell death compared with control samples. […] In summary, tumor cell lines were utilized to select for Rel inhibitors with tumor cytoxicity activities. […] Those compounds with in vitro anti-tumor activity were further tested in vivo using xenograft tumor models."}, "[12]": {"tested_on": "EAE", "assay": "EAE model (multiple sclerosis) in C57BL/6 mice", "format": "in vivo, mouse", "protocol": "As an example, C57BL/6 mice were immunized to induce EAE with 1) a subcutaneous injection on flanks of […] MOG38-50 peptide in 0.1 ml PBS emulsified in an equal volume of complete Freund's adjuvant containing […] mycobacterium tuberculosis H37RA, and 2) an intravenous injection of 100 ng pertussis toxin in 0.1 ml PBS. A second injection of pertussis toxin (100 ng per mouse) was given 48 hr later.\nMice were subsequently injected i.p. with 300 μg BA-039 (n=4) or vehicle (n=3) daily beginning with the first day of EAE onset. Mice were monitored daily for disease score up to 16 days.\nIn a second set of this experiment, treatment of the mice was stopped on the 16th day of the study and further monitored for additional 22 days. […] By contrast, the BA-039 treated group remained devoid of disease (average clinical score 1-2) (data not shown, manuscript in preparation). […] The data provide important information about treatment regimen with Rel inhibitors for multiple sclerosis patients in the future."}}, "data": [{"smiles": "COc1ccc(C=C2C(=O)NC(=S)NC2=O)c(OC)c1", "note": "[BA-001, 5-(2,4-dimethoxybenzylidene)-2-thioxodihydro-pyrimidine-4,6(1H,5H)-dione]", "values": [{"measurement": "IC50", "setting": "[1]", "result": "~6", "unit": "µM"}, {"measurement": "IC50", "setting": "[2]", "result": 15, "unit": "µM"}, {"measurement": "IC50", "setting": "[3]", "result": "~6", "unit": "µM"}, {"measurement": "tumor growth compared to vehicle controls", "setting": "[4]; 24 mg/Kg i.p., three days per week, NOD/SCID mice", "result": "slowed the tumor growth"}, {"measurement": "anti-tumor potency compared with DHMEQ", "setting": "[4]; both 12 to 24 mg/kg doses, DLBCL xenograft mouse model", "result": "much better potency than DHMEQ"}, {"measurement": "IC50", "setting": "[5]", "result": "~6", "unit": "µM"}, {"measurement": "growth inhibition (cell numbers as percentage of control group)", "setting": "[6]", "result": "dose-dependent apoptosis"}, {"measurement": "resistance to STZ-induced diabetes (glucose level)", "setting": "[7]", "result": "resistant to STZ-induced diabetes"}, {"measurement": "growth inhibition (cell numbers as percentage of control group)", "setting": "[8]", "result": "quite resistant"}, {"measurement": "growth inhibition (cell numbers as percentage of control group)", "setting": "[9]", "result": "only partially inhibited"}, {"measurement": "inhibitory effect toward non-c-Rel target genes (e.g. CD69)", "setting": "[10]", "result": "no inhibitory effects"}]}, {"smiles": "COc1ccc(C=C2C(=O)NC(=O)NC2=O)c2ccccc12", "note": "[BA-009, 5-((4-methoxynaphthalen-1-yl)methylene) pyrimidine-2,4,6(1H,3H,5H)-trione]", "values": [{"measurement": "tumor volume compared to vehicle controls", "setting": "[4]; 15 mg/kg i.p., three days per week, NOD/SCID mice", "result": "significantly smaller tumor volume"}]}, {"smiles": "COc1ccc(N2C(=O)/C(=C\\c3c(OC)ccc4ccccc34)C(=O)NC2=S)cc1", "note": "[BA-030, 5-((2-methoxynaphthalen-1-yl)methylene)-1-(4-methoxyphenyl)-2-thioxodihydro-pyrimidine-4,6(1H,5H)-dione]", "values": [{"measurement": "IC50", "setting": "[2]", "result": 0.4, "unit": "µM"}, {"measurement": "IC50", "setting": "[11]", "result": 4, "unit": "µM"}]}, {"smiles": "COc1cc(OC)c2ccccc2c1C=C1C(=O)NC(=S)NC1=O", "note": "[BA-039, 5-((2,4-dimethoxynaphthalen-1-yl)methylene)-2-thioxodihydropyrimidine-4,6(1H,5H)-dione]", "values": [{"measurement": "disease score", "setting": "[12]; 300 μg i.p. daily from first day of EAE onset, up to 16 days, reduced from 2, vehicle rises 2 to 5", "result": 1}, {"measurement": "average clinical score", "setting": "[12]; 22 days after treatment stopped on 16th day, control group score 5", "result": "1-2"}]}]}
